This is an account of results in EP0533240A2, “Substituted amine derivatives of piperazinylcamphorsulfonyl oxytocin antagonists” (MERCK & CO. INC., priority 1991, dated 1993).

This assay deals with T1, uterine OT receptors (Rattus norvegicus, UniProt P70536).
T1 construct: from tissue; host or cells: uterus of DES-treated rats, crude membrane preparation
T1 sequence (P70536 1-388): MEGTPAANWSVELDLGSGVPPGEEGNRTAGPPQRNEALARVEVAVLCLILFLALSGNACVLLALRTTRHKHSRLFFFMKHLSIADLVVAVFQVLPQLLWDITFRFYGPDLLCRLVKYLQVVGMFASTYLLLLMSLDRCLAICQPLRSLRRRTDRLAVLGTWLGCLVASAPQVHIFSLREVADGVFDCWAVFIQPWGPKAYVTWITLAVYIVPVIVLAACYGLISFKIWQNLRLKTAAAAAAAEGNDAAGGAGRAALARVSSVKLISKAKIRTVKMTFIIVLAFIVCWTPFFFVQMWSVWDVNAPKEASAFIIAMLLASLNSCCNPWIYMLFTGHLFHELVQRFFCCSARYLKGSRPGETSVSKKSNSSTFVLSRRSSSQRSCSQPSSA
Briefly: [3H]Oxytocin radioligand binding assay, crude uterine membrane preparation. Also on record: species or system rats. The following applies: for IC50: competition with 1 nM [3H]OT, 60 minutes, 22 °C, membranes of uteri from DES-treated rats; for inhibition at 1 µM: at 1,000 nM compound, 1 nM [3H]OT, rat uterine membranes.

Procedure: Oxytocin (OT)([tyrosyl, 3,5-[^3H]OT; 30-60 Ci/mmol; New England Nuclear. Boston, MA) to uterine OT receptors was based on an assay*using a crude membrane preparation of uteri taken from diethylstilbestrol dipropionate (DES)-treated (0.3 mg/kg, ip; 18-24) rats. Competetion studies were conducted at equilibrium (60 minutes; 22 °C) using 1 nM[^3H]OT in the following assay buffer: 50 mM Tris-HCI, 5 mM MgCl2, and 0.1% BSA, pH 7.4. Nonspecific binding (10% of the total binding) was determined using 1µM unlabeled OT and the binding reaction was terminated by filtration through glass fiber filters using a cell harvester (model 7019, Skatron, Inc., Sterling, VA).

In the case of `Cc1ccccc1N1CCN(S(=O)(=O)CC23CCC(CC2(O)C(C)CNC(=O)C2CCCN2CCCC(=O)O)C3(C)C)CC1` [Example 6, 1-((7,7-DIMETHYL-2-EXO-HYDROXY-2-ENDO-2-(1-(L-N-(3-CARBOXYPROPYL)PROLYL)AMINO)PROPYL-BICYCLO(2.2.1) HEPTAN-1 -YL)METHANESULFONYL)-4-(2-METHYLPHENYL) PIPERAZINE], the IC50 is 10 nM.

With `Cc1ccccc1N1CCN(S(=O)(=O)CC23CCC(CC2=CCN=[N+]=[N-])C3(C)C)CC1` (centres unmarked) [Example 15, 1-((7,7-dimethyl-2-(2-azido)ethylidine-bicyclo(2.2.1)heptan-1-yl)methanesulfonyl)-4-(2-methylphenyl)-piperazine], testing at 1 µM gave an inhibition of 44%.

As for `Cc1ccccc1N1CCN(S(=O)(=O)CC23CCC(C=C2C(=O)O)C3(C)C)CC1` (centres unmarked) [Example 21, 1-((7,7-DIMETHYL-2-CARBOXY-BICYCLO(2.2.1) HEPT-2-EN-1 -YL)METHANESULFONYL)-4-(2-METHYLPHENYL)PIPERAZINE], testing at 1 µM gave an inhibition of 38%.

Turning to `COC(=O)CCN1CCCC(C(=O)NCC(C)C2(O)CC3CCC2(CS(=O)(=O)N2CCN(c4ccccc4C)CC2)C3(C)C)C1` (centres unmarked) [Example 48], the half-inhibitory concentration (IC50) was 30 nM.

With `Cc1ccccc1N1CCN(S(=O)(=O)CC23CCC(CC2(O)C(C)CNC(=O)C2CCCN2CCC(=O)O)C3(C)C)CC1` (centres unmarked) [Example 46], the IC50 worked out at 20 nM.
